# Results as given in PubChem BioAssay AID1552 (Sanford-Burnham Center for Chemical Genomics, 2009).
# Calls of active or inactive are those of the source. How the calls were made is not given here.
# Molecular target: Ubiquitin-conjugating enzyme E2 N (Homo sapiens) (UniProt P61088)
# Assay: UBE2N binders by NMR, biophysical, purified protein (AID 1552)
# Details: NMR binding to purified UBE2N
# Ubiquitin-conjugating enzyme E2 N (Homo sapiens), sequence (P61088 whole entry, looked up): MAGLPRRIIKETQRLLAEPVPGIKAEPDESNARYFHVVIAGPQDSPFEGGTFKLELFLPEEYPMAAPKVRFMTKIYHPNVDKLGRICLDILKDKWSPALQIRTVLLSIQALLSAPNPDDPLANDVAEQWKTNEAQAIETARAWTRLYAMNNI
row,Compound,Kd
1,O=C1COc2ccc(C(=O)c3ccccc3)cc2CN1,> 4 mM (inactive)
2,CC(=O)c1cccc(NS(=O)(=O)N2CCCCC2)c1,> 4 mM (inactive)
3,CC(C)(C)CC(=O)N1CCC(C(N)=O)CC1,> 4 mM (inactive)
4,Cc1nc2ccc(NC(=O)N3CCSCC3)cc2s1,> 4 mM (inactive)
5,Cc1sc2nc(-c3ccco3)oc(=O)c2c1C,> 4 mM (inactive)
6,CCOc1ccc(C)cc1S(=O)(=O)n1ccc(C)n1,> 4 mM (inactive)
7,Cn1nc(C(=O)N2CCCC2)c2ccccc2c1=O,> 4 mM (inactive)
8,CC(=O)CC(=O)N1C(O)CC[N+]1(C)C (stereo unspecified),> 4 mM (inactive)
9,NC(=O)C1CCCN1S(=O)(=O)c1ccc(F)cc1 (stereo unspecified),> 4 mM (inactive)
10,O=C1CC[C@]23/C=C/C(=O)NCCCCNCCCNC(=O)/C=C/c4ccc(c2c4)O[C@@H]3C1,> 4 mM (inactive)
11,O=C(O)CSCC(=O)Nc1cccc(O)c1,> 4 mM (inactive)
12,O=C(O)c1cccc2c1OCCO2,> 4 mM (inactive)
13,C[C@@H]1OC(O[C@H]2[C@H](OC(=O)[C@]34CCC(C)(C)CC3C3=CCC5[C@@]6(C)CC[C@H](OC7O[C@@H](C)[C@H](O[C@@H]8OC[C@@H](O)[C@H](O)[C@H]8O)[C@@H](O)[C@H]7O)C(C)(C)C6CC[C@@]5(C)[C@]3(C)CC4O)OC[C@H](O)[C@H]2O)[C@H](O)[C@H](O)[C@H]1O[C@@H]1O[C@H](CO)[C@@H](O)[C@H](O)[C@H]1O (stereo partly specified),> 4 mM (inactive)
14,Cn1c(SCc2ccon2)nc2ccccc2c1=O,> 4 mM (inactive)
15,NC(=O)CSc1nc2ncnc(N)c2[nH]1,> 4 mM (inactive)
16,NC(=O)CSc1nnc(-c2cccnc2)o1,> 4 mM (inactive)
17,CC(C)C(C)/C=C/C(C)[C@H]1CCC2C3=CCC4CC(=O)CC[C@]4(C)C3CC[C@@]21C (stereo partly specified),> 4 mM (inactive)
18,c1coc(-c2nc(-c3ccncc3)no2)c1,> 4 mM (inactive)
19,Nc1ccccc1-n1cccn1,> 4 mM (inactive)
20,CC(=O)Nc1nnc(-c2ccco2)o1,> 4 mM (inactive)
21,Nc1ccncc1,> 4 mM (inactive)
22,Cc1nnc(SCC(=O)N2CCCCC2)s1,> 4 mM (inactive)
23,Nc1nnc(SCc2ccc(F)cc2Cl)s1,> 4 mM (inactive)

row,Compound,Kd
1,COC(=O)c1ccccc1NC(=O)c1cc[n+]([O-])cc1,> 4 mM (inactive)
2,O=C(O)Cn1nc(-c2ccccc2)c2ccccc2c1=O,> 4 mM (inactive)
3,NC(=O)NCCCC(N)C(=O)O (stereo unspecified),> 4 mM (inactive)
4,C[C@@H]1O[C@@H](O[C@H]2[C@@H](Oc3cc(O)c4c(c3)O[C@H](c3ccc(O)cc3)CC4=O)O[C@H](CO)[C@@H](O)[C@@H]2O)[C@H](O)[C@H](O)[C@H]1O,> 4 mM (inactive)
5,CCc1ccc(C(=O)N2CCCC2)s1,> 4 mM (inactive)
6,Cc1ccc(-n2[nH]c(C)cc2=O)cc1,> 4 mM (inactive)
7,COc1ccc(/C=C2/N=C(N)SC2=O)cc1,> 4 mM (inactive)
8,O=C1NC(=O)C(Cc2ccccc2)C(=O)N1,> 4 mM (inactive)
9,COc1cc([C@@H]2c3cc4c(cc3[C@H](OC(C)=O)[C@H]3COC(=O)[C@H]23)OCO4)cc(OC)c1OC,> 4 mM (inactive)
10,Cc1ccc2c(C)c(C(=O)Nc3nnc(C)s3)oc2c1,> 4 mM (inactive)
11,CC(=O)Oc1ccc(-c2nc(-c3cccnc3)no2)cc1,> 4 mM (inactive)
12,NC1=NC(=O)/C(=C\c2ccccc2)S1,> 4 mM (inactive)
13,C/C=C/COc1nc2c(c(=O)n(C)c(=O)n2C)n1C,> 4 mM (inactive)
14,NCc1ccc(-n2cccn2)cc1,> 4 mM (inactive)
15,O=S1(=O)CCC(NC(=S)Nc2ccc(O)cc2)C1 (stereo unspecified),> 4 mM (inactive)
16,CC(=O)Nc1ccn(Cc2c(F)cccc2Cl)n1,> 4 mM (inactive)
17,O=C1CSC(=Nc2ccc(O)cc2)N1,> 4 mM (inactive)
18,Nc1ccc2[nH]ccc2c1,> 4 mM (inactive)
19,Fc1ccc(Br)cc1/C=N/n1cnnc1,> 4 mM (inactive)
20,Cc1cc(=O)n(C(N)=S)[nH]1,> 4 mM (inactive)
21,O=C(O)C1Cc2ccccc2N1 (stereo unspecified),> 4 mM (inactive)
22,Cc1nnsc1C(=O)Nc1ccccn1,> 4 mM (inactive)
23,COc1ccc(-c2coc3cc(OC(C)=O)cc(OC(C)=O)c3c2=O)cc1,> 4 mM (inactive)

row,Compound,Kd
1,C[C@@H]1O[C@@H](O[C@H]2C[C@@H](O)[C@]3(CO)C4C(CC[C@]3(O)C2)[C@@]2(O)CC[C@H](C3=CC(=O)OC3)[C@@]2(C)C[C@H]4O)[C@H](O)[C@H](O)[C@H]1O (stereo partly specified),> 4 mM (inactive)
2,O=C(c1ccco1)N1CCN(Cc2cccc(F)c2)CC1,> 4 mM (inactive)
3,Nc1cc2ccccc2cn1,> 4 mM (inactive)
4,Cc1ccc(-c2nnc3sc(-c4ccncc4)nn23)cc1,> 4 mM (inactive)
5,O=c1[nH]c(=S)c2c(n1-c1ccccc1)CCC2,> 4 mM (inactive)
6,NC(=O)c1c[nH]c2ccccc12,> 4 mM (inactive)
7,CC(=O)Nc1nnc(-c2ccccn2)o1,> 4 mM (inactive)
8,CC(=O)O[C@@H]1CC2C(C)(C)C(=O)C=C[C@]2(C)C2CC[C@@]3(C)[C@H](c4ccoc4)OC(=O)[C@H]4O[C@]43[C@@]21C (stereo partly specified),> 4 mM (inactive)
9,Cc1c(CO)cnn1-c1ccccc1,> 4 mM (inactive)
10,COc1cc(-c2coc3cc(O[C@@H]4O[C@H](CO)[C@@H](O)[C@H](O)[C@H]4O)c(OC)c(O)c3c2=O)cc(O)c1OC,> 4 mM (inactive)
11,N#CCCn1c(=O)oc2ccccc21,> 4 mM (inactive)
12,COC(=O)c1sccc1S(=O)(=O)N1CCCC1,> 4 mM (inactive)
13,NC12CC3CC(C1)CC(CC(=O)O)(C3)C2,> 4 mM (inactive)
14,O=C1NC(=S)N/C1=C\c1ccccc1F,> 4 mM (inactive)
15,NC(=O)C1CCN(Cc2ccccc2)CC1,> 4 mM (inactive)
16,CC(=O)O[C@@H]1CC2C(C)(C)[C@@H](O)CC[C@]2(C)C2CC[C@@]3(C)[C@H](c4ccoc4)OC(=O)[C@H]4O[C@]43[C@@]21C (stereo partly specified),> 4 mM (inactive)
17,CSc1ccn(CCC(=O)O)c(=O)n1,> 4 mM (inactive)
18,COc1ccccc1NC(=O)CCC(=O)O,> 4 mM (inactive)
19,CC(=O)O[C@@H]1CC2C(C)(C)[C@H](O)C=C[C@]2(C)C2CC[C@@]3(C)[C@H](c4ccoc4)OC(=O)C4OC43[C@@]21C (stereo partly specified),> 4 mM (inactive)
20,COc1cc2c(c(OC)c1OC)-c1ccc(OC)c(=O)cc1[C@@H](NC(C)=O)CC2,> 4 mM (inactive)
21,CSc1ccccc1NC(=O)c1ccco1,> 4 mM (inactive)
22,Cc1nnsc1-c1onc(C)c1C(=O)O,> 4 mM (inactive)
23,NC(=O)C1CCN(S(=O)(=O)c2ccccc2)CC1,> 4 mM (inactive)

row,Compound,Kd
1,COC(=O)N(c1ccccc1)P1(=S)OCCO1,> 4 mM (inactive)
2,CC1=CC(=O)CC(C)(C)C1(O)/C=C/C(C)=C\C(=O)O (stereo unspecified),> 4 mM (inactive)
3,Nc1nc(SCC(=O)c2ccc([N+](=O)[O-])cc2)n[nH]1,> 4 mM (inactive)
4,CCCN1CCC(N2CCC(O)CC2)CC1,> 4 mM (inactive)
5,NC(=O)CN1CC(=O)NC(=O)C1,> 4 mM (inactive)
6,CC(=O)O[C@@H]1CC2C(C)(C)C(=O)[C@@H]3O[C@@H]3[C@]2(C)C2CC[C@]3(C)C(=CC(=O)O[C@H]3c3ccoc3)[C@@]21C (stereo partly specified),> 4 mM (inactive)
7,Cc1c(CO)cnn1-c1ccc(F)cc1,> 4 mM (inactive)
8,CC(=O)Nc1ccc(NC(=O)c2ccncc2)cc1,> 4 mM (inactive)
9,Cc1nn2c(nc1=O)SCC(c1ccccc1)=N2,> 4 mM (inactive)
10,Cc1nccn1CCC(=O)O,> 4 mM (inactive)
11,O=C1NC(=O)C(c2ccccc2)C(=O)N1,> 4 mM (inactive)
12,Cc1cccc(N2CCN(C(=O)c3ccncc3)CC2)c1C,> 4 mM (inactive)
13,COC(=O)c1cc2ccccc2cn1,> 4 mM (inactive)
14,O=C(Nc1ccon1)c1csc2ccccc12,> 4 mM (inactive)
15,Cc1nc2ccccc2c(=O)n1NC(=O)C1CCCCC1,> 4 mM (inactive)
16,O=C(Nc1ccc(Cl)cc1)N1CCCC1,> 4 mM (inactive)
17,O=C(c1cc(Cl)cc(Cl)c1)N1CCOCC1,> 4 mM (inactive)
18,CN(C)S(=O)(=O)Nc1ccc(Br)cc1F,> 4 mM (inactive)
19,COc1cc(C/C=C/c2ccccc2)c(OC)cc1O,> 4 mM (inactive)
20,O=C1CCCC(=O)N1c1ccc(O)cc1,> 4 mM (inactive)
21,CCOC(=O)c1cc(C)n(C)n1,> 4 mM (inactive)
22,COCCn1c(N)nc2c1c(=O)[nH]c(=O)n2C,> 4 mM (inactive)
23,NC(=O)C1CCN(C(=O)c2ccco2)CC1,> 4 mM (inactive)

row,Compound,Kd
1,CC(=O)Nc1ccc(-c2cn3ccsc3n2)cc1,> 4 mM (inactive)
2,N#CCSc1nc2ccccc2c(=O)n1-c1ccccc1,> 4 mM (inactive)
3,CN1CCN(c2ccc(C(=O)O)cc2)CC1,> 4 mM (inactive)
4,C=C1CCC(C2CC(=O)OC2=O)C(=O)CCC2C1CC2(C)C (stereo unspecified),> 4 mM (inactive)
5,CN1C2C[C@H](OC(=O)[C@H](CO)c3ccccc3)C[C@H]1[C@@H](O)C2,> 4 mM (inactive)
6,CNc1nnc(CSc2nc(C)cc(C)n2)s1,> 4 mM (inactive)
7,O=C(O)c1ccc2snnc2c1,> 4 mM (inactive)
8,CC(=O)c1cc2c(s1)SCC(=O)N2,> 4 mM (inactive)
9,COC(=O)[C@@H]1C(O)CC[C@H]2CN3CCc4c([nH]c5ccccc45)[C@@H]3C[C@@H]21 (stereo partly specified),> 4 mM (inactive)
10,CC1(C)Cc2cccc(CO)c2O1,> 4 mM (inactive)
11,NC(=O)C1CCN(CN2C(=O)c3ccccc3C2=O)CC1,> 4 mM (inactive)
12,COc1ccc(-c2cc(=O)c3c(OC)c(OC)c(OC)c(OC)c3o2)cc1OC,> 4 mM (inactive)
13,Cc1nn(C)c2sc(C(=O)O)cc12,> 4 mM (inactive)
14,Clc1ccc(-n2ccnc2)nn1,> 4 mM (inactive)
15,CCOC(=O)c1c(C)nc2cc(C)ccn12,> 4 mM (inactive)
16,OCc1ccc(-n2cncn2)cc1,> 4 mM (inactive)
17,CCCNC(CC(=O)Nc1cccnc1)C(=O)O (stereo unspecified),> 4 mM (inactive)
18,COC(=O)c1ccccc1C,> 4 mM (inactive)
19,CC(=O)/C=C\[C@@H]1[C@@]2(C)CCCC(C)(C)C2CC[C@@]1(C)O (stereo partly specified),> 4 mM (inactive)
